From PMC8847575, “HSL1 and BAM1/2 impact epidermal cell development by sensing distinct signaling peptides” (Nature Communications, 2022)
Ends that are not written are not given here.

Legend:
[1] = biological target: T1, HSL1 ectodomain (Arabidopsis thaliana, UniProt Q9SGP2); assay: ITC, peptide titrated into isolated HSL1 ectodomain; details: peptide (syringe) into HSL1 ectodomain (cell), 25 °C, 20 mM sodium citrate pH 5.0, 150 mM NaCl, N fitted to 1, mean ± SD of at least two independent experiments, n.d = no binding detected
T1 construct: HSL1 (residues 17-618, AT1G28440); azurocidin or Drosophila BIP signal peptide (secretion signal) (N); made in house; host or cells: Trichoplusia ni Tnao38 insect cells (baculovirus)
T1 sequence (Q9SGP2 17-618): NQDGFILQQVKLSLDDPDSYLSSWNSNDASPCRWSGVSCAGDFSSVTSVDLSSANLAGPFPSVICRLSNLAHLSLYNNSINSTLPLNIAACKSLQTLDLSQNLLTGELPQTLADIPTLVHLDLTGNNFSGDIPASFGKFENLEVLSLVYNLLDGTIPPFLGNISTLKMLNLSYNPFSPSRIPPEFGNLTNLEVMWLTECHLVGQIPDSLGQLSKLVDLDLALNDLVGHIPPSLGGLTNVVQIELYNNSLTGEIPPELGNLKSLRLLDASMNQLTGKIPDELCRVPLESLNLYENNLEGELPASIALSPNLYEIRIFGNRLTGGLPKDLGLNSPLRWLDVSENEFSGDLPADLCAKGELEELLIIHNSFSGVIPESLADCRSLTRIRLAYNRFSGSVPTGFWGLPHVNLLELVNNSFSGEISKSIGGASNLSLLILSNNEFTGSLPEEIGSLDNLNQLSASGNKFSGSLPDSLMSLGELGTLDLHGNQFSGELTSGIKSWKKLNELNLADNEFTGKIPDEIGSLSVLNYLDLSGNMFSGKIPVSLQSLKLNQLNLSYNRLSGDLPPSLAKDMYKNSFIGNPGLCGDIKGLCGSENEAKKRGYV
Text: (§1) All genes used for protein expression in Trichoplusia ni Tnao38 cells[46] were codon optimized and cloned into a modified pFastBac vector (Geneva Biotech) providing an azurocidin[47] or Drosophila BIP signal peptide, a TEV (tobacco etch virus protease) cleavage site and a Strep-9xHis tandem affinity tag at their carboxy terminus. The genes used are coding for the Arabidopsis ectodomains of HSL1 (residues 17-618, AT1G28440), HAE (residues 20-620, AT4G28490) SERK1 (residues 24–213, AT1G71830), and BAM1 (residues 20–637, AT5G65700). To perform Grating-coupled interferometry (GCI) experiments, HSL1 was fused to a non-cleavable Avi-tag[49],[50]. […] After every expression round, secretion of our proteins was detected using an anti-His-HRP conjugated antibody from Roche (Ref:11965085001) in a 1:2000 dilution. […] Proteins were analyzed for purity and structural integrity by SDS-PAGE.
(§2) Experiments were performed at 25 °C using a MicroCal PEAQ-ITC (Malvern Instruments) with a 200 µL standard cell and a 40 μL titration syringe. […] Molar protein concentrations for HSL1, BAM1, and SERK1 were calculated using their molar extinction coefficient and a molecular weight of 74,896 and 27,551 Da, respectively as previously determined. […] Experiments were done in duplicates or triplicates, otherwise specified, and data were analyzed using the MicroCal PEAQ-ITC Analysis Software provided by the manufacturer. […]

[2] = biological target: T2, HSL1-SERK1 complex (Arabidopsis thaliana, UniProt Q94AG2+Q9SGP2); assay: ITC, SERK1 titrated into HSL1 plus peptide (ternary complex formation); details: SERK1 (syringe) into HSL1 + indicated peptide (cell), 25 °C, 20 mM sodium citrate pH 5.0, 150 mM NaCl, N fitted to 1, mean ± SD of at least two independent experiments, n.d = no binding detected
T2 construct: HSL1 (residues 17-618, AT1G28440); made in house; host or cells: Trichoplusia ni Tnao38 insect cells (baculovirus)
T2 sequence (Q9SGP2 17-618): T1 sequence (Q9SGP2 17-618)
T2 sequence (Q94AG2 24-213 partner limits assumed): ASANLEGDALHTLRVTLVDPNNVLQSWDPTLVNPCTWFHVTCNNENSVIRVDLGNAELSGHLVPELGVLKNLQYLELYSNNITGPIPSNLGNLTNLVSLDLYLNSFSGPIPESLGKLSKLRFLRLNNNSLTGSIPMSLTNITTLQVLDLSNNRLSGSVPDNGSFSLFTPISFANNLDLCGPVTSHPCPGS
Text: as §1, §2

RLVPSGPNPLHH [CLE13]
Kd (dissociation constant), peptide vs HSL1 [1]: could not detect binding | Kd (dissociation constant), SERK1 vs HSL1 + peptide [2]: no biding was detected
